From patent publication US12441739B2, “Glucagon receptor antagonist and use thereof” (LANZHOU UNIVERSITY, priority 2021, dated 2025)
pIC50: −log10 of the molar value. “And” between values parts separate entries of the source, which are not always exact repeats. Equal entries are not always repeated.

Molecular target: T1, human glucagon receptor (hGCGR) (Homo sapiens, UniProt P47871)
T1 construct: host or cells: HEK293
Test: HTRF second messenger cAMP response experiment (called cell viability test) in HEK293 cells with glucagon peptide segment
Type: cell-based
Protocol: In order to determine the antagonistic activity of the compound A on the glucagon receptor in the above embodiments, a cell viability test is carried out. The specific implementation is as follows.
A known human glucagon receptor (hGCGR) antagonist drug is selected as a positive control, and the compound A in the above embodiments, a glucagon peptide segment (that is, human full-length glucagon), and human embryonic kidney cells containing target receptor molecules are mixed. The glucagon peptide segment binds to hGCGR to activate the hGCGR signaling pathway and release the second messenger cAMP. The compound A acts as an antagonist to inhibit the activity of hGCGR.
In an exemplary embodiment, a known hGCGR antagonist drug (L-168,049) is selected as a positive control. […] In addition, in view of the human glucagon receptor on the cell membrane of human embryonic kidney cells HEK293, HEK293 is used to test the drug activity of the human glucagon antagonist. In this embodiment, different concentrations of compound A of the present disclosure and the positive control are respectively mixed with glucagon peptide segments and HEK293 cells, the second messenger cAMP is detected through homogeneous time resolved fluorescence (HTRF), and a half maximal inhibitory concentration value of each compound is calculated according to the intensity value of HTRF.
(§1) In an exemplary embodiment, the activity of the compound A is tested using the HTRF technique. Specifically, after activation of the glucagon receptor by the glucagon peptide segment, the second messenger cAMP is released from the glucagon receptor cells, the second messenger cAMP may be detected by HTRF, and the half maximal inhibitory concentration (IC50) of the tested compound may be calculated according to the fluorescence intensity.
In an exemplary embodiment, 11 identical concentration gradients are set for the compounds A1 and A2 respectively. The activities of the compounds A1 and A2 are determined by the HTRF second messenger cAMP response experiment in triplicate.
Step S910. Select an antagonist drug of hGCGR as a positive control, and mix each target drug small molecule, a glucagon peptide segment, and human embryonic kidney cells containing the target receptor molecule. The glucagon peptide segment binds to hGCGR to activate the hGCGR signaling pathway and release the second messenger cAMP. The target drug molecule acts as an antagonist to inhibit the activity of hGCGR.
In an exemplary embodiment, an antagonist drug (such as L-168,049) of hGCGR is selected as a positive control. In addition, in view of the human glucagon receptor on the cell membrane of human embryonic kidney cells (such as HEK293), HEK293 may be used to test the drug activity of the human glucagon antagonist. The target drug small molecule, the glucagon peptide segment, and the HEK293 cells containing the target receptor molecule are mixed. The glucagon peptide segment is used to bind to hGCGR to activate the hGCGR signaling pathway and promote the release of the second messenger cAMP. The target drug molecule acts as an antagonist to inhibit the activity of hGCGR.
Step S920. Detect the second messenger cAMP through HTRF, and determine a half maximal inhibitory concentration value of each target drug small molecule according to an intensity value of HTRF.
as §1, with “each target drug small molecule (such as 30 target drug small molecules shown in Table 2)” for “the compound A”, “tested by” for “tested”, “drug molecule” for “tested compound”, “intensity. […]” for “intensity.”

T1 sequence (P47871 26-477): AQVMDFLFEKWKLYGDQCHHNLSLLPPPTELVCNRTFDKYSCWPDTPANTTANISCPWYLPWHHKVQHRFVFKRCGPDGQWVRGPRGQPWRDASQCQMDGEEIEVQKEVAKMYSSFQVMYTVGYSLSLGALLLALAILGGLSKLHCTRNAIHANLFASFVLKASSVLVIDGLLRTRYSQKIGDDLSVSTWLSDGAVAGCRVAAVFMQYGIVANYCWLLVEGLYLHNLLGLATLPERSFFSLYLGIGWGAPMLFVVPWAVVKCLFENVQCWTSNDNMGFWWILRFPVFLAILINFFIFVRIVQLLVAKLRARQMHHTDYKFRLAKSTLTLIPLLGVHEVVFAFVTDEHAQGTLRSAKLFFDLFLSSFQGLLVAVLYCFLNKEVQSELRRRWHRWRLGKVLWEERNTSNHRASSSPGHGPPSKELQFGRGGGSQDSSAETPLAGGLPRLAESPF

SMILES: CCCOc1ccc(Br)cc1-c1cc(-c2ccc(Cl)cc2)[nH]c1-c1ccncc1 [L-168,049, 4-[3-(5-bromo-2-propoxyphenyl)-5-(4-chlorophenyl)-1H-pyrrol-2-yl]pyridine, reference compound]
- pIC50 (HEK293, cAMP HTRF, 11 concentrations, L-168,049 positive control per group of ten compounds): 7.21 and 7.38
- Inhibition percentage (concentration gradient LogM −5, HEK293 cells, glucagon peptide segment, HTRF cAMP, triplicate columns): 100.4281% and 100.5604% and 100.8895%
- Inhibition percentage (concentration gradient LogM −5, triplicate, HEK293, cAMP HTRF): 100.4281 percentage
- Inhibition percentage (concentration gradient LogM −5.477121, HEK293 cells, glucagon peptide segment, HTRF cAMP, triplicate columns): 98.6132% and 96.62% and 98.1315%
- Inhibition percentage (concentration gradient LogM −5.477121, triplicate, HEK293, cAMP HTRF): 98.6132 percentage
- Inhibition percentage (concentration gradient LogM −5.954243, HEK293 cells, glucagon peptide segment, HTRF cAMP, triplicate columns): 98.05% and 95.17% and 94.46%
- Inhibition percentage (concentration gradient LogM −5.954243, triplicate, HEK293, cAMP HTRF): 98.05 percentage
- Inhibition percentage (concentration gradient LogM −6.431364, HEK293 cells, glucagon peptide segment, HTRF cAMP, triplicate columns): 93.05% and 91.9% and 88.0059%
- Inhibition percentage (concentration gradient LogM −6.431364, triplicate, HEK293, cAMP HTRF): 93.05 percentage
- Inhibition percentage (concentration gradient LogM −6.908485, HEK293 cells, glucagon peptide segment, HTRF cAMP, triplicate columns): 89.46% and 74.79% and 78.16%
- Inhibition percentage (concentration gradient LogM −6.908485, triplicate, HEK293, cAMP HTRF): 89.46 percentage
- Inhibition percentage (concentration gradient LogM −7.385606, HEK293 cells, glucagon peptide segment, HTRF cAMP, triplicate columns): 46.69% and 16.31%
- Inhibition percentage (concentration gradient LogM −7.385606, triplicate, HEK293, cAMP HTRF): 47.8261 percentage
- Inhibition percentage (concentration gradient LogM −7.862728, HEK293 cells, glucagon peptide segment, HTRF cAMP, triplicate columns): 33.52% and 15.3532%
- Inhibition percentage (concentration gradient LogM −7.862728, triplicate, HEK293, cAMP HTRF): 28.98 percentage
- Inhibition percentage (concentration gradient LogM −8.339849, HEK293 cells, glucagon peptide segment, HTRF cAMP, triplicate columns): −19.5336% and −9.209%
- Inhibition percentage (concentration gradient LogM −8.339849, triplicate, HEK293, cAMP HTRF): 3.941 percentage
- Inhibition percentage (concentration gradient LogM −8.81697, triplicate, HEK293, cAMP HTRF): −8.051 percentage
- Inhibition percentage (concentration gradient LogM −9.294091, HEK293 cells, glucagon peptide segment, HTRF cAMP, triplicate columns): 19.0859% and −1.84%
- Inhibition percentage (concentration gradient LogM −9.294091, triplicate, HEK293, cAMP HTRF): −3.763 percentage
- Inhibition percentage (concentration gradient LogM −9.771213, HEK293 cells, glucagon peptide segment, HTRF cAMP, triplicate columns): −1.911% and 6.132% and 1.646%
- Inhibition percentage (concentration gradient LogM −9.771213, triplicate, HEK293, cAMP HTRF): −1.911 percentage
